Results on seven compounds are retold here after PMC2989597 (Current topics in medicinal chemistry, 2009).

One data set concerns the target AmpC β-lactamase. As to conditions: cited from earlier work.
The subject of a further data set is Cyp. The experiment in a line: Cyp inhibition. It is filed as in vitro ADME.
The next data set has as its target glucocerebrosidase (GC). As to conditions: native GC; cited from earlier work.
A further data set is described as follows: Microsomal stability. It is filed as in vitro ADME. The following applies: rat.
The test system of the next data set is N370S mutant GC. As to conditions: N370S mutant GC fibroblasts, 40 μM; cited from earlier work.
The test system of a further data set is Caco-2. As to the kind of experiment: Caco-2 permeability. In kind it is in vitro ADME.
The subject of another data set is α-galactosidase. As to conditions: cited from earlier work.
The next data set in a line: Aqueous solubility. It is filed as physicochemical.
Data set [1] concerns β-N-acetylflucosaminidase. As to conditions: cited from earlier work.
Another data set concerns α-glucosidase. As to conditions: cited from earlier work.
A further data set in a line: Plasma protein binding. As to conditions: low free fraction. It is filed as in vitro ADME.
The subject of data set [2] is Thyroid stimulating hormone receptor (TSHR). The following applies: AID 926; cited from earlier work.
For data set [3], the system named is TSHR. The following applies: sera from 4 Graves' disease patients, cAMP accumulation; cited from earlier work.
For data set [4], the system named is thyroperoxidase mRNA expression. The following applies: human thyrocytes, 10 μM and 30 μM; cited from earlier work.
Data set [5] concerns TSHR. As to conditions: cited from earlier work.
The next data set concerns LHR. The following applies: cited from earlier work.
Another data set has as its system S. mansoni adult worms. As to conditions: 100 μM carboxy-PTIO (NO scavenger); cited from earlier work.
The next data set relates to S. mansoni TGR. The following applies: single 10 μM exposure to 15 nM S. mansoni TGR, NADPH; cited from earlier work.

For the compound `CC(C)[C@H](NC(=O)OC(C)(C)C)c1nnc(S(=O)(=O)Cc2c(F)cccc2Cl)o1` [NCGC00067197, (S)-tert-butyl 1-(5-(2-chloro-6-fluorobenzylsulfonyl)-1,3,4-oxadiazol-2-yl)-2-methylpropylcarbamate], the 50% inhibitory concentration (IC50) on AmpC β-lactamase was 0.016 µM.

Take `Cc1cc(N2CCOCC2)nc2ccc(NC(=O)C3CCCCC3)cc12` [NCGC00092410, N-(4-methyl-2-morpholinoquinolin-6-yl)cyclohexanecarboxamide]: the Cyp inhibition entry in the data set on Cyp is on record as “no relevant Cyp inhibition”. Moreover, at glucocerebrosidase (GC), the Ki was 0.021 µM. Also, in the data set “Microsomal stability”, the microsomal stability result is listed as “acceptable”. Besides, the “co-localization of mutant GC to the lysosome” value in the data set with N370S mutant GC was “co-localization of this mutant form of GC to the lysosome”. Besides, the Caco-2 permeability result with Caco-2 is listed as “acceptable”. In addition, in the data set on α-galactosidase, the “inhibitory capacity for α-galactosidase” value was “no inhibitory capacity”. In addition, in “Aqueous solubility”, the aqueous solubility entry is on record as “acceptable”. Moreover, the “inhibitory capacity for β-N-acetylflucosaminidase” value in data set [1] is “no inhibitory capacity”. In the data set with α-glucosidase, the “inhibitory capacity for α-glucosidase” value is recorded as “no inhibitory capacity”. Further, the plasma protein binding result in the data set “Plasma protein binding” was “high level”.

Regarding `O=C(O)c1ccc2c(c1)C(=O)N([C@H](Cc1cccc3ccccc13)C(=O)O)C2=O` [NCGC00161790, (R)-2-(1-carboxy-2-(naphthalen-1-yl)ethyl)-1,3-dioxoisoindoline-5-carboxylic acid], the Ki on AmpC β-lactamase was 5 µM.

Take `COc1ccc(C2Nc3ccccc3C(=O)N2Cc2ccccc2)cc1COc1ccc(NC(C)=O)cc1` (centres unmarked) [NCGC00161876, N-(4-(5-(3-benzyl-4-oxo-1,2,3,4-tetrahydroquinazolin-2-yl)-2-methoxybenzyloxy)phenyl)acetamide]: the “TSHR agonism in qHTS” value in data set [2] is “agonists”.

As to `COC/C=C/c1ccc(-c2nc(SC)nc3sc(C(=O)NC(C)(C)C)c(N)c23)cc1` [NCGC00166332], the “blocking the activity of thyroid-stimulating antibodies” value with TSHR [3] is reported as “capable of blocking”. Also, the “blocking thyroperoxidase mRNA expression” value in [4] is “capable of blocking”. In the data set with TSHR [5], the TSHR antagonism result is reported as “antagonist”.

Consider `COc1cccc(-c2nc(SC)nc3sc(C(=O)NC(C)(C)C)c(N)c23)c1` [Org 41841, reference compound], for which the LHR agonism entry in the data set on LHR was “highly potent”. For the same compound, the “response at TSHR” value in the data set with TSHR [5] (lower potency relative to LHR) is “agonistic response”.

With `N#Cc1c(-c2ccccc2)no[n+]1[O-]` [furoxan, 3-cyano-4-phenyl-1,2,5-oxadiazole 2-oxide], the “worm killing potential in the presence of carboxy-PTIO” value with S. mansoni adult worms is reported as “largely mitigated”. For the same compound, the NO release entry in the data set with S. mansoni TGR is “appreciable amount of NO”.
